These results are taken from patent publication US10947252B2, “Inhibitors of KEAP1-Nrf2 protein-protein interaction” (Janssen Pharmaceutica NV, priority 2018, dated 2021).

Assay [1] relates to Glo-Response ARE-luc2P HEK293 cell line. Description: ARE luciferase reporter cell-based assay.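 Further: luciferase signal tracks Nrf2 activation of the ARE once compounds disrupt KEAP1-Nrf2 binding, read with One-Glo reagent, DMSO serving as low control.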 Conditions: average of results obtained. A general note: A reporter such as luciferase makes a cellular process visible.
Assay [2] concerns the target Kelch domain of human KEAP1 (321-624 aa) (Homo sapiens (Human), UniProt Q14145). Description: KEAP1 KELCH ThermoFluor binding assay.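 Further: Ligand-induced melting temperature shift of E. coli-expressed KEAP1 Kelch protein, Kd estimated from concentration-response curves of ΔTm.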 Conditions: KEAP Kelch […], 1,8-ANS, pH 7.0, average of results obtained, read-out: Tf Kd.

A value given as a limit tells only on which side of the number the result lay.

Sequence of Kelch domain of human KEAP1 (321-624 aa) (Q14145 321-624): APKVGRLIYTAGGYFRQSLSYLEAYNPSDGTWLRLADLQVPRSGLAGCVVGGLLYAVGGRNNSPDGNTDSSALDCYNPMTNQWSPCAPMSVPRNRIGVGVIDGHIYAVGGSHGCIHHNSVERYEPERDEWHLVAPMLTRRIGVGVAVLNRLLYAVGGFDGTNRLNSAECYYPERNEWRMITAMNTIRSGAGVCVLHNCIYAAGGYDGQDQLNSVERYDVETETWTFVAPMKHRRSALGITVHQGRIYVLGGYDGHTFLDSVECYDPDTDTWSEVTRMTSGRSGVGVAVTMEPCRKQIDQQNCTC

One may read the EC50 as the concentration at which the effect is half-maximal. A lower EC50 goes with a more potent agent. A word on the Kd: it is the free concentration of one partner at which half of the binding sites on the other are occupied at equilibrium, for simple one-to-one binding. `Cc1ccc([C@@H](c2ccn3c(C(F)(F)F)nnc3c2C)C(C)(C)C(=O)O)cc1CN1CC2(CC2)Oc2ncccc2S1(=O)=O` (single isomer, unassigned) [Example 317, (*S)-3-(3-((1′,1′-Dioxidospiro[cyclopropane-1,4′-pyrido[2,3-b][1,4,5]oxathiazepin]-2′(3′H)-yl)methyl)-4-methylphenyl)-2,2-dimethyl-3-(8-methyl-3-(trifluoromethyl)-[1,2,4]triazolo[4,3-a]pyridin-7-yl)propanoic Acid]: the half-maximal effective concentration (EC50) in assay [1] (Homo sapiens, HEK293, 24 h) came out at 1.9 nM. The dissociation constant (Kd) in assay [2] was below 1 nM.
Compound `Cc1ccc([C@@H](CC(=O)O)c2ccn3c(C(F)(F)F)nnc3c2C)nc1CN1C[C@@H]2CCCCN2c2ncc(Cl)cc2S1(=O)=O` (single isomer, unassigned) [Example 519, (*S)-3-(6-(((*S)-3-Chloro-5,5-dioxido-7,7a,8,9,10,11-hexahydro-6H-dipyrido[2,1-d:2′,3′-f][1,2,5]thiadiazepin-6-yl)methyl)-5-methylpyridin-2-yl)-3-(8-methyl-3-(trifluoromethyl)-[1,2,4]triazolo[4,3-a]pyridin-7-yl)propanoic Acid] gave a concentration for a half-maximal effect (EC50) in assay [1] (Homo sapiens, HEK293, 24 h) of 16 nM. The equilibrium dissociation constant (Kd) in assay [2] is below 1 nM.
The like results for `Cc1ccc([C@H](CC(=O)O)c2ccn3c(C(F)(F)F)nnc3c2C)cc1CN1C[C@H]2CCCN2c2ncc(C#N)cc2S1(=O)=O` (single isomer, unassigned) [Example 207, (*S)-3-(3-(((R)-3-Cyano-5,5-dioxido-7a,8,9,10-tetrahydropyrido[2,3-f]pyrrolo[2,1-d][1,2,5]thiadiazepin-6(7H)-yl)methyl)-4-methylphenyl)-3-(8-methyl-3-(trifluoromethyl)-[1,2,4]triazolo[4,3-a]pyridin-7-yl)propanoic Acid] were, in that order, 11 nM and below 1 nM.
The like results for `Cc1ccc([C@H](CC(=O)O)c2ccc3c(nnn3CC3CC3)c2C)cc1CN1C[C@H]2CCCN2c2ncccc2S1(=O)=O` (single isomer, unassigned) [Example 402, (*S)-3-(1-(Cyclopropylmethyl)-4-methyl-1H-benzo[d][1,2,3]triazol-5-yl)-3-(3-(((R)-5,5-dioxido-7a,8,9,10-tetrahydropyrido[2,3-f]pyrrolo[2,1-d][1,2,5]thiadiazepin-6(7H)-yl)methyl)-4-methylphenyl)propanoic Acid] were, in that order, 27.9 nM and below 1 nM.
Consider `Cc1ccc([C@@H](CC(=O)O)c2ccn3c(C(F)(F)F)nnc3c2C)cc1CN1CC(C)(C)Oc2ccccc2S1(=O)=O` (single isomer, unassigned) [Example 286, (*R)-3-(3-((4,4-Dimethyl-1,1-dioxido-3,4-dihydro-2H-benzo[b][1,4,5]oxathiazepin-2-yl)methyl)-4-methylphenyl)-3-(8-methyl-3-(trifluoromethyl)-[1,2,4]triazolo[4,3-a]pyridin-7-yl)propanoic Acid], for which the concentration giving a half-maximal response (EC50) in assay [1] (Homo sapiens, HEK293, 24 h) stood at 504 nM. In addition, the dissociation constant Kd in assay [2] came to 3.39 nM.
The like results for `Cc1ccc(C(c2ccn3c(C(F)F)nnc3c2C)C(C)(C)C(=O)O)cc1CN1CC2(CCOCC2)Oc2ncccc2S1(=O)=O` (racemic) [Example 52, (R/S)-3-(3-(Difluoromethyl)-8-methyl-[1,2,4]triazolo[4,3-a]pyridin-7-yl)-3-(3-((1′,1′-dioxido-2,3,5,6-tetrahydrospiro[pyran-4,4′-pyrido[2,3-b][1,4,5]oxathiazepin]-2′(3′H)-yl)methyl)-4-methylphenyl)-2,2-dimethylpropanoic Acid] were, in that order, 8.2 nM and below 1 nM.
`Cc1ccc([C@@H](c2ccc3c(nnn3CC3CC3)c2C)C(C)(C)C(=O)O)cc1CN1CC2(CCOCC2)Oc2ncccc2S1(=O)=O` (single isomer, unassigned) [Example 428, (S*)-3-(1-(cyclopropylmethyl)-4-methyl-1H-benzo[d][1,2,3]triazol-5-yl)-3-(3-((1′,1′-dioxido-2,3,5,6-tetrahydrospiro[pyran-4,4′-pyrido[2,3-b][1,4,5]oxathiazepin]-2′(3′H)-yl)methyl)-4-methylphenyl)-2,2-dimethylpropanoic Acid]: in assay [1] (Homo sapiens, HEK293, 24 h), a half-maximal effect (EC50) was put at 399 nM. Further, in assay [2], the Kd was below 1 nM.
With `Cc1ccc([C@@H](CC(=O)O)c2ccc3c(nnn3CC3CC3)c2C)cc1CN1CC2(CC2)N(C)c2ncccc2S1(=O)=O` (single isomer, unassigned) [Example 79, (*R)-3-(1-(Cyclopropylmethyl)-4-methyl-1H-benzo[d][1,2,3]triazol-5-yl)-3-(4-methyl-3-((5′-methyl-1′,1′-dioxido-5′H-spiro[cyclopropane-1,4′-pyrido[2,3-f][1,2,5]thiadiazepin]-2′(3′H)-yl)methyl)phenyl)propanoic Acid], the EC50 in assay [1] (Homo sapiens, HEK293, 24 h) is 153 nM. In addition, in assay [2], the Kd was found to be 5.6 nM.
The like results for `CCn1nnc2c(C)c([C@@H](c3cnc(C)c(CN4CC5(CCOCC5)Oc5ncccc5S4(=O)=O)c3)C(C)(C)C(=O)O)ccc21` (single isomer, unassigned) [Example 59, (*S)-3-(5-((1′,1′-Dioxido-2,3,5,6-tetrahydrospiro[pyran-4,4′-pyrido[2,3-b][1,4,5]oxathiazepin]-2′(3′H)-yl)methyl)-6-methylpyridin-3-yl)-3-(1-ethyl-4-methyl-1H-benzo[d][1,2,3]triazol-5-yl)-2,2-dimethylpropanoic Acid] were, in that order, 116 nM and 1.2 nM.
For `Cc1ccc([C@@H](c2ccn3c(C(F)(F)F)nnc3c2C)C(C)(C)C(=O)O)nc1CN1CC2(CCOCC2)Oc2ncccc2S1(=O)=O` (single isomer, unassigned) [Example 38, (*S)-3-(6-((1′,1′-Dioxido-2,3,5,6-tetrahydrospiro[pyran-4,4′-pyrido[2,3-b][1,4,5]oxathiazepin]-2′(3′H)-yl)methyl)-5-methylpyridin-2-yl)-2,2-dimethyl-3-(8-methyl-3-(trifluoromethyl)-[1,2,4]triazolo[4,3-a]pyridin-7-yl)propanoic Acid] the same measures were 7.2 nM and below 1 nM.
The like results for `Cc1cnc2c(c1)S(=O)(=O)N(Cc1nc([C@H](c3ccn4c(C(F)(F)F)nnc4c3C)C(C)(C)C(=O)O)ccc1C)CC1(CNC1)O2` (single isomer, unassigned) [Example 629, (*R)-2,2-Dimethyl-3-(8-methyl-3-(trifluoromethyl)-[1,2,4]triazolo[4,3-a]pyridin-7-yl)-3-(5-methyl-6-((8′-methyl-1′,1′-dioxidospiro[azetidine-3,4′-pyrido[2,3-b][1,4,5]oxathiazepin]-2′(3′H)-yl)methyl)pyridin-2-yl)propanoic Acid] were, in that order, above 20000 nM and 131000 nM.
Compound `Cc1ccc([C@@H](c2ccn3c(C(F)(F)F)nnc3c2C)C(C)(C)C(=O)O)cc1CN1CC2(CCOCC2)Oc2nc(N[C@H](C)CCO)ccc2S1(=O)=O` (single isomer, unassigned) [Example 119, (*S)-3-(3-((7′-(((R)-4-Hydroxybutan-2-yl)amino)-1′,1′-dioxido-2,3,5,6-tetrahydrospiro[pyran-4,4′-pyrido[2,3-b][1,4,5]oxathiazepin]-2′(3′H)-yl)methyl)-4-methylphenyl)-2,2-dimethyl-3-(8-methyl-3-(trifluoromethyl)-[1,2,4[triazolo[4,3-a]pyridine-7-yl)propanoic Acid] displayed an EC50 in assay [1] (Homo sapiens, HEK293, 24 h) of 166 nM. Besides, the dissociation constant Kd in assay [2] is below 1 nM.
The like results for `Cc1ccc([C@@H](c2ccn3c(C(F)F)nnc3c2C)C(C)(C)C(=O)O)nc1CN1CC2(CC2)Oc2nc(OCCN3CCCC3)c(C)cc2S1(=O)=O` (single isomer, unassigned) [Example 358, (*S)-3-(3-(Difluoromethyl)-8-methyl-[1,2,4]triazolo[4,3-a]pyridin-7-yl)-2,2-dimethyl-3-(5-methyl-6-((8′-methyl-1′,1′-dioxido-7′-(2-(pyrrolidin-1-yl)ethoxy)spiro[cyclopropane-1,4′-pyrido[2,3-b][1,4,5]oxathiazepin]-2′(3′H)-yl)methyl)pyridin-2-yl)propanoic Acid] were, in that order, 23.3 nM and 4460 nM.
The like results for `Cc1c([C@@H](CC(=O)O)c2ccc(Cl)c(CN3CC4CCCCN4c4ncc(F)cc4S3(=O)=O)c2)ccn2c(C(F)(F)F)nnc12` (single isomer, unassigned) [Example 94, (*S)-3-(4-Chloro-3-(((*S)-3-fluoro-5,5-dioxido-7,7a,8,9,10,11-hexahydro-6H-dipyrido[2,1-d:2′,3′-f][1,2,5]thiadiazepin-6-yl)methyl)phenyl)-3-(8-methyl-3-(trifluoromethyl)-[1,2,4]triazolo[4,3-a]pyridine-7-yl)propanoic Acid] were, in that order, 54.2 nM and below 1 nM.
In assay [1] (24 hours), “(*S)-3-(3-((7′-(3-((2-(2-aminoethoxy)ethyl)amino)-3-oxopropyl)-1′,1′-dioxido-2,3,5,6-tetrahydrospiro[pyran-4,4′-pyrido[2,3-b][1,4,5]oxathiazepin]-2′(3′H)-yl)methyl)-4-methylphenyl)-2,2-dimethyl-3-(8-methyl-3-(trifluoromethyl)-[1,2,4]triazolo[4,3-a]pyridin-7-yl)propanoic Acid [Example 345]” showed an EC50 above 20 nM. Also, the dissociation constant Kd in assay [2] was above 10000 nM.
In the case of `Cc1ccc(C(CC(=O)O)c2ccc3c(nnn3C3CC3)c2C)cc1CN1C[C@@H]2CCCCN2c2ccccc2S1(=O)=O` (mixture of isomers) [Example 217, (R/S)-3-(1-Cyclopropyl-4-methyl-1H-benzo[d][1,2,3]triazol-5-yl)-3-(3-(((*S)-5,5-dioxido-7,7a,8,9,10,11-hexahydro-6H-benzo[f]pyrido[2,1-d][1,2,5]thiadiazepin-6-yl)methyl)-4-methylphenyl)propanoic Acid], the EC50 in assay [1] (Homo sapiens, HEK293, 24 h) was 11 nM. Further, the Kd in assay [2] was below 1 nM.
